Legend:
ABCD3 = biological target: T1, ABCD3 (Homo sapiens, UniProt P28288); test: Correlation of ABCD3 expression with drug sensitivity across the NCI-60; assay type: cell-based; conditions: Pearson correlation of ABCD3 expression with sensitivity of the 60 cell lines; 1429 compounds; inverse, p < 0.0001
T1 construct: profiled in 60 diverse cancer cell lines (the NCI-60) using real-time RT-PCR; endogenous in cells; host or cells: NCI-60 human cancer cell lines
Experimental: (§1) Expression levels are measured by real-time quantitative RT-PCR using the LightCycler RNA Amplification SYBR Green kit and a LightCycler machine (Roche Biochemicals, Indianapolis, Ind.). Specific oligonucleotide probes are designed for each of the ABC transporters using DNAStar Primer Select (DNASTAR Inc.), and they may be synthesized at Lofstrand Laboratories (Gaithersburg, Md.). When possible, the amplicons are designed to encompass exon-intron boundaries to avoid amplification of genomic DNA. Since the Syber Green assay detects accumulation of double stranded DNA, primers are selected (from a battery consisting of about 200 primers) that amplified a single product of the correct size. […]
(§2) During PCR amplification, fluorescence emission is measured and recorded in real time by the LightCycler. Crossing point values are calculated, using the LightCycler software package, by the Fit Points analysis method, with baseline fluorescence set at 1. The SyberGreen assay measures accumulation of double-stranded products, and the appearance of primer dimers limits quantitation at high cycle numbers. […] The raw results are expressed as number of cycles to reach the crossing point. If the desired product is not detected, the corresponding value is adjusted to crossing points indicating no expression. To assess the contribution of experimental artifacts, selected cell lines are assessed in replicate. […]

ABCB3 = biological target: T2, ABCB3 (Homo sapiens, UniProt Q03519); test: Correlation of ABCB3 expression with drug sensitivity across the NCI-60; assay type: cell-based; conditions: Pearson correlation of ABCB3 expression with sensitivity of the 60 cell lines; 1429 compounds; inverse, p < 0.0001
T2 construct: profiled in 60 diverse cancer cell lines (the NCI-60) using real-time RT-PCR; endogenous in cells; host or cells: NCI-60 human cancer cell lines
T2 sequence (Q03519 whole entry): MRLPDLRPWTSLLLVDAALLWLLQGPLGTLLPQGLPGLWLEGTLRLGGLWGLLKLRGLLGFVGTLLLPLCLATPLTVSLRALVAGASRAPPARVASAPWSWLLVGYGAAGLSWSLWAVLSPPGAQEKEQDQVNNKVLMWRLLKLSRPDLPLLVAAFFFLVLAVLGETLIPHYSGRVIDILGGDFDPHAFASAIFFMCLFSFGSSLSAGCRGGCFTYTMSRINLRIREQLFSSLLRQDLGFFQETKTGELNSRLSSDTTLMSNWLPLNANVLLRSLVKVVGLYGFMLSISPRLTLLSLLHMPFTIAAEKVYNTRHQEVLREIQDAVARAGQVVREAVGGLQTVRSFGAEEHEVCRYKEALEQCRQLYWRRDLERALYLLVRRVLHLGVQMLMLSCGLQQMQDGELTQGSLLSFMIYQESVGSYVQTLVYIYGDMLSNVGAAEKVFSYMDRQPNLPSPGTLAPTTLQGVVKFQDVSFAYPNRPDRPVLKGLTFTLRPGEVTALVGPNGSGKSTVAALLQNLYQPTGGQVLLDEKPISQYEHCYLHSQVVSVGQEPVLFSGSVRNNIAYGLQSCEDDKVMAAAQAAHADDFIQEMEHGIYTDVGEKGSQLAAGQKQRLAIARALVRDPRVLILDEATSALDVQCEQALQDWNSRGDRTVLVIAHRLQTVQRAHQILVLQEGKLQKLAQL
T2 sequence (Q03518 whole entry partner): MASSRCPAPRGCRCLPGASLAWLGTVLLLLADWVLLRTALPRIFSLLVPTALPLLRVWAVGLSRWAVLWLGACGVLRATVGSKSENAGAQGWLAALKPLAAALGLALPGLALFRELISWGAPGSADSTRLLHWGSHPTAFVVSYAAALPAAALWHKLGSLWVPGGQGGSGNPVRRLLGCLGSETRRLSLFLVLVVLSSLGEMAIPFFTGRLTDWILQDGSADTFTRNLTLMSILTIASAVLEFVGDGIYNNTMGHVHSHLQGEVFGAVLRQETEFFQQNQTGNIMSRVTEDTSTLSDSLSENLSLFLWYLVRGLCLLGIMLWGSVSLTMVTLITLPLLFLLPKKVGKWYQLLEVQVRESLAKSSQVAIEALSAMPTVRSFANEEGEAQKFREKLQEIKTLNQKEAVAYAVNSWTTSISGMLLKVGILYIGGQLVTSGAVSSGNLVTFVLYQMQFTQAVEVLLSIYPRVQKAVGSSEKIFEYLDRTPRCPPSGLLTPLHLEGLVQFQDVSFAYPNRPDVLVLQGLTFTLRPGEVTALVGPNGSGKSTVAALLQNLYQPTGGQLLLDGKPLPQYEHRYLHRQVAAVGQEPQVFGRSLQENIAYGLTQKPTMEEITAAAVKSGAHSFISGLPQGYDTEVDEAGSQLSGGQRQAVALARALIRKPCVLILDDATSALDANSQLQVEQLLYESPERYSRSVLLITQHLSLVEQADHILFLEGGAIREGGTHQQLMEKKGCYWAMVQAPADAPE
Experimental: (§3) Expression levels are measured by real-time quantitative RT-PCR using the LightCycler RNA Amplification SYBR Green kit and a LightCycler machine (Roche Biochemicals, Indianapolis, Ind.). […] When possible, the amplicons are designed to encompass exon-intron boundaries to avoid amplification of genomic DNA. Since the Syber Green assay detects accumulation of double stranded DNA, primers are selected (from a battery consisting of about 200 primers) that amplified a single product of the correct size.
(§4) RT-PCR is carried out on 150 ng total RNA, in the presence of 250 nM specific primers. […]
During PCR amplification, fluorescence emission is measured and recorded in real time by the LightCycler. Crossing point values are calculated, using the LightCycler software package, by the Fit Points analysis method, with baseline fluorescence set at 1. The SyberGreen assay measures accumulation of double-stranded products, and the appearance of primer dimers limits quantitation at high cycle numbers. […] The raw results are expressed as number of cycles to reach the crossing point. If the desired product is not detected, the corresponding value is adjusted to crossing points indicating no expression. To assess the contribution of experimental artifacts, selected cell lines are assessed in replicate.

ABCB1 = ABCB1 (Homo sapiens, UniProt P08183); test: Correlation of ABCB1 expression with drug sensitivity across the NCI-60
Chain of ABCB1 (P08183 whole entry): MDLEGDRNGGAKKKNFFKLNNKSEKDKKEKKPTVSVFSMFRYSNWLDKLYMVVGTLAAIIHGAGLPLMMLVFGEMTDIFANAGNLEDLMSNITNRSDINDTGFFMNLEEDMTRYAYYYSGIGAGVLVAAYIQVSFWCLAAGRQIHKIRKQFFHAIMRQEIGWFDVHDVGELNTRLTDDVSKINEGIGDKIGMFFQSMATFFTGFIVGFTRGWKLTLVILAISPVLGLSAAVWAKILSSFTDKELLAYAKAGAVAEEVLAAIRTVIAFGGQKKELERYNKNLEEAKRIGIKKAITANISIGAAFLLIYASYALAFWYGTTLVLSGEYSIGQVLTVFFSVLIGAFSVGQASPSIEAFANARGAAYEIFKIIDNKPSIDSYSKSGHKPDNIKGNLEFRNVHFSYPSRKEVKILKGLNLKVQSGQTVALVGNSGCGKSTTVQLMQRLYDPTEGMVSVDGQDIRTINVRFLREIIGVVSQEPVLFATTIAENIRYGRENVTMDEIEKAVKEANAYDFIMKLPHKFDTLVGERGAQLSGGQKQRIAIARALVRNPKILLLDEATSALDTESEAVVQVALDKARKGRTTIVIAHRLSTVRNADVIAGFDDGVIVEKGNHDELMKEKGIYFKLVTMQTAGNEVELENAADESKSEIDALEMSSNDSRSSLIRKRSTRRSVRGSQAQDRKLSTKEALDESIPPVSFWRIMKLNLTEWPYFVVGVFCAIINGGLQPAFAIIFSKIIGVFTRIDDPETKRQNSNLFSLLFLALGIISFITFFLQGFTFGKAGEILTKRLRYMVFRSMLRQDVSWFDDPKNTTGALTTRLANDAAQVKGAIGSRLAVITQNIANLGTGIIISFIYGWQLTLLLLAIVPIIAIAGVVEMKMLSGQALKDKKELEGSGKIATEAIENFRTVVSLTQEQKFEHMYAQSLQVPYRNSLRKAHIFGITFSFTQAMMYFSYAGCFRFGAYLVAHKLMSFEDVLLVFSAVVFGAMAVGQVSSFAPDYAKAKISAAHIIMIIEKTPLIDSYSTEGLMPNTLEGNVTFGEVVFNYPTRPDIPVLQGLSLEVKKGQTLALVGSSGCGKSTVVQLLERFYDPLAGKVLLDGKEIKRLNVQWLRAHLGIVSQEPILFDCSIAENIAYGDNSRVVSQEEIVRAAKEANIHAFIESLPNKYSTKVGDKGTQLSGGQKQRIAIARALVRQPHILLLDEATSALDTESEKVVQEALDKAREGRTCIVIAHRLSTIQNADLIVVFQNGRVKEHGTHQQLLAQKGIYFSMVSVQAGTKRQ
Method in brief: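 SYBR Green real-time RT-PCR on 150 ng total RNA with 250 nM primers: RT 20 min at 50 °C, then 45 cycles; expression taken as crossing-point cycle number. Correlated with drug sensitivity of 1429 compounds across the cell panel; permutation p-values with step-down and step-up (FDR q-value) multiple-testing correction.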

ABCD4 = biological target: T3, ABCD4 (Homo sapiens, UniProt O14678); test: Correlation of ABCD4 expression with drug sensitivity across the NCI-60; assay type: cell-based; conditions: Pearson correlation of ABCD4 expression with sensitivity of the 60 cell lines; 1429 compounds; inverse, p < 0.0001
T3 construct: profiled in 60 diverse cancer cell lines (the NCI-60) using real-time RT-PCR; endogenous in cells; host or cells: NCI-60 human cancer cell lines
Experimental: as §1, §2

ABCG8 = biological target: T4, ABCG8 (Homo sapiens, UniProt Q9H221); test: Correlation of ABCG8 expression with drug sensitivity across the NCI-60; assay type: cell-based; conditions: Pearson correlation of ABCG8 expression with sensitivity of the 60 cell lines; 1429 compounds; inverse, p < 0.0001
T4 construct: endogenous in cells; host or cells: NCI-60 human cancer cell lines
Experimental: as §1, §2

ABCD1 = biological target: T5, ABCD1 (Homo sapiens, UniProt P33897); test: Correlation of ABCD1 expression with drug sensitivity across the NCI-60; assay type: cell-based; conditions: Pearson correlation of ABCD1 expression with sensitivity of the 60 cell lines; 1429 compounds; inverse, p < 0.0001
T5 construct: profiled in 60 diverse cancer cell lines (the NCI-60) using real-time RT-PCR; endogenous in cells; host or cells: NCI-60 human cancer cell lines
Experimental: as §3
RT-PCR is carried out on 150 ng total RNA, in the presence of 250 nM specific primers. Following reverse transcription (20 min at 50° C.), the PCR reaction consists of 45 cycles of denaturation (15 sec at 95° C.), annealing (30 sec at 58° C.), and elongation (30 sec at 72° C.). No-template (water) reaction mixtures are prepared as negative controls.
During PCR amplification, fluorescence emission is measured and recorded in real time by the LightCycler. Crossing point values are calculated, using the LightCycler software package, by the Fit Points analysis method, with baseline fluorescence set at 1. The SyberGreen assay measures accumulation of double-stranded products, and the appearance of primer dimers limits quantitation at high cycle numbers. The specificity of amplified products is verified by melting-curve analysis and agarose gel electrophoresis (not shown). The raw results are expressed as number of cycles to reach the crossing point. If the desired product is not detected, the corresponding value is adjusted to crossing points indicating no expression. To assess the contribution of experimental artifacts, selected cell lines are assessed in replicate.
The two are combined to form a joint dataset that includes 1429 compounds.
To determine quantitatively how well the 47 genes cluster the cell lines by their tissues of origin, a statistical method is employed wherein the kappa statistic is used to indicate how well the observed clusters correspond to the nine tissue-of-origin classifications. […] To control the overall false type 1 error rate, both a step-down procedure (Westfall and Young, 1993, Resampling-Based Multiple Testing: Examples and Methods for p-value Adjustment (New York: Wiley)) and a step-up procedure (Reiner et al., 2003, Bioinformatics 19:368-375) were employed to adjust for multiple testing of all 47 genes simultaneously. In the Benjamini-Hochberg procedure the p-values are computed in the standard way by permutation, assuming that all distributions are exchangeable: the number of values in the permuted data with correlations over a threshold, divided by the number of compounds and by the number of permutations. In this analysis, the False Discovery Rate (q-value) at which each compound would be declared was calculated using the step-up procedure for positively correlated test statistics (again true because all correlations being compared are computed against the same ABC gene): in this procedure the first q-value for the largest correlation is the Bonferroni-corrected p-value for that gene; then further q-values are calculated as qj=max(pj*1429/j, qj-1). This procedure limits the expected proportion of false positives in the list 1, . . . , j to at most qj.

ABCF1 = biological target: T6, ABCF1 (Homo sapiens, UniProt Q8NE71); test: Correlation of ABCF1 expression with drug sensitivity across the NCI-60; assay type: cell-based; conditions: Pearson correlation of ABCF1 expression with sensitivity of the 60 cell lines; 1429 compounds; inverse, p < 0.0001
T6 construct: endogenous in cells; host or cells: NCI-60 human cancer cell lines
T6 sequence (Q8NE71 whole entry): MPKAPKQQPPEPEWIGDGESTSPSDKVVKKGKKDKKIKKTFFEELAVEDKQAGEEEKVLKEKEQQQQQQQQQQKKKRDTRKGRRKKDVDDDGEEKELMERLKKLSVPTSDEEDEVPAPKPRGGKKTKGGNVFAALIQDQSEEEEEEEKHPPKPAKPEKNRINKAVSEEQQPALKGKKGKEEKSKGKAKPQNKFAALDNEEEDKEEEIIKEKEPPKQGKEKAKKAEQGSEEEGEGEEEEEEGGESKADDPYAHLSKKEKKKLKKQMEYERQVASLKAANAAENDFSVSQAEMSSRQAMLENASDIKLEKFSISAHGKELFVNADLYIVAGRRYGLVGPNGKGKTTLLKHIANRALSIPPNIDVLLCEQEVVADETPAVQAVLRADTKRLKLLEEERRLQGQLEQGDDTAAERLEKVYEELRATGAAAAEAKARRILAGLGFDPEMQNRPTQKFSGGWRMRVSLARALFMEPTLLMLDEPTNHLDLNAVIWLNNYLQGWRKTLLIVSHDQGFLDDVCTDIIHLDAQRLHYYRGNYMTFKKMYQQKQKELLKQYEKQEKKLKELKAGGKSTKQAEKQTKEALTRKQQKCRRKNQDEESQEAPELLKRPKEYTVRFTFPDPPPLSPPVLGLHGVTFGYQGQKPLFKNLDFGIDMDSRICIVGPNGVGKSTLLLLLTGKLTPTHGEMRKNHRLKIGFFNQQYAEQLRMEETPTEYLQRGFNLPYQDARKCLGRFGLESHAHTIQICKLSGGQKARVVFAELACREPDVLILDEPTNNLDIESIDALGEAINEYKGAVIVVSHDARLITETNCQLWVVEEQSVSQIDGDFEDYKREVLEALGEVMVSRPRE
Experimental: as §1, §2

ABCB2 = biological target: T7, ABCB2 (Homo sapiens, UniProt Q03518); test: Correlation of ABCB2 expression with drug sensitivity across the NCI-60; assay type: cell-based; conditions: Pearson correlation of ABCB2 expression with sensitivity of the 60 cell lines; 1429 compounds; inverse, p < 0.0001
T7 construct: profiled in 60 diverse cancer cell lines (the NCI-60) using real-time RT-PCR; endogenous in cells; host or cells: NCI-60 human cancer cell lines
T7 sequence (Q03518 whole entry): as the sequence (Q03518 whole entry partner) above
T7 sequence (Q03519 whole entry partner): as the sequence (Q03519 whole entry) above
Experimental: as §1, §2

ABCC4 = biological target: T8, ABCC4 (Homo sapiens, UniProt O15439); test: Correlation of ABCC4 expression with drug sensitivity across the NCI-60; assay type: cell-based; conditions: Pearson correlation of ABCC4 expression with sensitivity of the 60 cell lines; 1429 compounds; inverse, p < 0.0001
T8 construct: profiled in 60 diverse cancer cell lines (the NCI-60) using real-time RT-PCR; endogenous in cells; host or cells: NCI-60 human cancer cell lines
T8 sequence (O15439 whole entry): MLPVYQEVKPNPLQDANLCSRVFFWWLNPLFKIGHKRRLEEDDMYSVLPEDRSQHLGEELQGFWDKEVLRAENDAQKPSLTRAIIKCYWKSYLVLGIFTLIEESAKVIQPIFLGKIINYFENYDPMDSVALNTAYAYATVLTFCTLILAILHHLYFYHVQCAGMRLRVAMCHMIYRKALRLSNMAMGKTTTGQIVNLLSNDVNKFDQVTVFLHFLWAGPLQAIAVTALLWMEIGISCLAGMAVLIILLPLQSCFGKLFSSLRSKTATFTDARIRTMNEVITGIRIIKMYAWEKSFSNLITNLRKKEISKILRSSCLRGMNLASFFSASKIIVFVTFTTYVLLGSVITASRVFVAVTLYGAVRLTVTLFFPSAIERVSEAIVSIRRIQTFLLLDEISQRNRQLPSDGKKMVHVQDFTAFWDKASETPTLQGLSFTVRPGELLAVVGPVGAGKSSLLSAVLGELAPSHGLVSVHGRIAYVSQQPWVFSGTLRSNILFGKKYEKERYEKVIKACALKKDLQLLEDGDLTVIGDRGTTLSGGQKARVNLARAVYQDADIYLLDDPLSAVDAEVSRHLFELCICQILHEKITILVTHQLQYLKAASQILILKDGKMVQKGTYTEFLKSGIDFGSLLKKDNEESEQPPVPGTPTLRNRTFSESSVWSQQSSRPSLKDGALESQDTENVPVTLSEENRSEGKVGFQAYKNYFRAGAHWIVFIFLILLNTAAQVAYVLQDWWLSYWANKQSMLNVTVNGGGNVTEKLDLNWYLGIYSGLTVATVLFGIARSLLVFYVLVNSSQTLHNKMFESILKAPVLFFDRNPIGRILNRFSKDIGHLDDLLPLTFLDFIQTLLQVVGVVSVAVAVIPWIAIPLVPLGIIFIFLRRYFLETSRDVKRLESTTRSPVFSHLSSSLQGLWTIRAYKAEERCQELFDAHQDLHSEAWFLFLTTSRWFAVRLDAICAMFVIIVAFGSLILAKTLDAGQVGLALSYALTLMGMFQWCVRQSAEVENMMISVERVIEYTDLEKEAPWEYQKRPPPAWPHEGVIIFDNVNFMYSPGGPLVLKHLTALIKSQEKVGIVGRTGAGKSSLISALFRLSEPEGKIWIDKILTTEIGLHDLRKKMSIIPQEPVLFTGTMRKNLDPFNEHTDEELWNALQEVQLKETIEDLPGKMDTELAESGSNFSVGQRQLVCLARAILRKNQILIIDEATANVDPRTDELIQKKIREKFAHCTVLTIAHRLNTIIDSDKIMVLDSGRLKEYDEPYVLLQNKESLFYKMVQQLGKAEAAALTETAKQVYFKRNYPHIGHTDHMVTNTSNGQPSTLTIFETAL
Experimental: as §3, §4, §2

Structure (SMILES): O=c1[nH]cc(F)c(=O)[nH]1 [NSC 19893]
- Correlation (ABCD3): −0.4232

Structure (SMILES): CS(=O)(=O)c1cc(=O)c2ccccc2s1 [NSC 622282]
- Correlation (ABCB3): −0.4406

Structure (SMILES): CC(=O)OC(C)(C)/C=C/C(=O)[C@](C)(O)[C@H]1[C@H](O)C[C@@]2(C)[C@@H]3CC=C4[C@@H](C=C(O)C(=O)C4(C)C)[C@]3(C)C(=O)C[C@]12C [NSC 106399]
- Pearson's Correlation Coeff (ABCB1): 0.1871
- Correlation (ABCD4): −0.4232

Structure (SMILES): C=C1[C@@H](C)[C@H]2[C@H](Cc3ccccc3)NC(=O)[C@]23[C@H](OC(C)=O)/C=C/[C@@](C)(O)C(=O)[C@@H](C)C/C=C/[C@H]3[C@@H]1O [NSC 209835]
- Correlation (ABCG8): −0.4443

Structure (SMILES): N[C@H](C(=O)O)[C@@H]1CC(Cl)=NO1 [NSC 163501]
- Pearson's Correlation Coeff (ABCB1): 0.2122
- Correlation (ABCD1): −0.4301
- Correlation (ABCF1): −0.5274

Structure (SMILES): CC(C)C1=CC2=CC[C@@H]3[C@](C)(CCC[C@@]3(C)C(=O)O)[C@H]2CC1 [NSC 25149]
- Correlation (ABCB2): −0.3794

Structure (SMILES): CSCSCC(CO)NC(=O)/C=C\c1c(C)[nH]c(=O)[nH]c1=O (stereo not shown) [NSC 251820]
- Correlation (ABCC4): −0.4340
